Consider 18 compounds from patent publication US8901118B2, “Compounds and methods for kinase modulation, and indications therefor” (Plexxikon Inc., priority 2010, dated 2014).

Where only a bound is given, the exact number is not on record here.

Experiment [1] has as its target T1, CYP1A2 (Homo sapiens, UniProt P05177).
T1 sequence (P05177 1-516): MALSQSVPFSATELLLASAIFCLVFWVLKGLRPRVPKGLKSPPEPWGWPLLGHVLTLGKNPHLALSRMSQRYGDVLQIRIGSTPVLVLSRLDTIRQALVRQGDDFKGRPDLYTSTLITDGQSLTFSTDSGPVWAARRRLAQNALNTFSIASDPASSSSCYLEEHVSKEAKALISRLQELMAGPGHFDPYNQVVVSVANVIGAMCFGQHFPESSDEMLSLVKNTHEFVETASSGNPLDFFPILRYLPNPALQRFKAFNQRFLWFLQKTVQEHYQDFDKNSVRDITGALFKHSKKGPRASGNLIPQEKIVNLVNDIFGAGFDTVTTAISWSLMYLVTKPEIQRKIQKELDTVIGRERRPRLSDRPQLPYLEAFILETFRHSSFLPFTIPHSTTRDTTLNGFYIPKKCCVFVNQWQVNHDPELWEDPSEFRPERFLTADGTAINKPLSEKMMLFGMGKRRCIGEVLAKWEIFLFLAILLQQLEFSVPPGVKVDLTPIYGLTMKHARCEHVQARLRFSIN
In words: CYP1A2 inhibition (fluorescent substrate CEC). It is filed as in vitro ADME. The note with it: read-out: Cyp IC50 1A2. The gist of the method:
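Inhibition is measured as the drop in fluorescent metabolite formation across a 10-point compound titration with NADPH regeneration at 37 °C. Incubation lasts 15 min for CYP1A2, 45 min for CYP2C9 and 30 min for CYP2C19 and CYP2D6.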

The subject of experiment [2] is SKNSH cells. Put plainly: SKNSH (human neuroblastoma) cell proliferation assay (ATPlite). Conditions: SK-N-SH, read-out: Inhibition of Cell Proliferation IC50, SKNSH. It is filed as cell-based. As for the experimental part:
Compounds are assessed in a variety of cell based assays. For example BaF3 cells engineered with any of BCR-FMS, BCR-KIT, BCR-FLT3, BCR-NTRK1, BCR-NTRK2, and BCR-NTRK3, are used in cell proliferation assays to assess inhibitory activity of Fms, Kit, Flt-3, TrkA, TrkB, and TrkC, respectively. An MV-4-11 (leukemia) cell proliferation assay is used to assess inhibitory activity in Flt-3, and SKNSH (human neuroblastoma) cell proliferation assay is used to assess efficacy of Fms/Trk inhibitors. Additional cells may be assayed similarly to assess the efficacy of Fms/Trk inhibitors, such as MiaPaCa (human pancreatic cancer) and Capan-1 (human pancreatic carcinoma) cells. Reagent and assay conditions are as follows: • BaF3 cells: • Maintained in RPMI containing 10% FBS, 1% PenStrep, 1% NEAA, and 1% L-Glutamine, supplemented with 1 mg/mL G418 and 5% WEHI-CM (or recombinant murine IL-3). • Confluent cells are split 1:50 to 1:100 every 3-4 days. • MV-4-11 cells: • Maintained in Iscove's Modified Dulbecco's Medium containing 10% FBS. • Confluent cells are split 1:4 every 3-4 days. • SKNSH cells: RPMI containing 10% FBS. On day 1, cells are counted, then centrifuged in a conical tube for 5 minutes at 1000 rpm. The supernatant is removed and cells are re-suspended as follows: • BaF3: resuspend in growth media +1 mg/mL G418 (without WEHFIL-3) to 2×10^5 cells/mL. • MV-4-11: resuspend in growth media to 5×10^5 cells/mL. • SKNSH: resuspend in growth media to 2×10^4 cells/mL. The cells are plated (50 μL, 150 μL for SKNSH cells) in each well of a 96-well dish (Corning 3610) and incubated at 37° C. in 5% CO2 overnight, cells plated to a final concentration of cells as follows: • BaF3: 10,000 cells per well. • MV-4-11: 25,000 cells per well. • SKNSH: 3,000 cells per well. On day 2, compound at a maximum concentration of 5 mM is serially diluted 1:3 for a total of 8 point titration with DMSO as a control. A 1 μL aliquot of each dilution point is added to 249 μL growth media and 50 μL is added to a well containing cells, providing 10 μM compound for the maximum concentration point. The cells are incubated for 3 days at 37° C. in 5% CO2. For SKNSH cells, a 0.75 μL aliquot of appropriate dilution in DMSO is added to 150 μL of cells. On day 5, ATPlite 1 step Luminescence Assay System (Perkin Elmer #6016739) is brought to room temperature along with the cell cultures. ATPlite is added to each well as follows: • BaF3: 25 μL per well. • MV-4-11: 40 μL per well. • SKNSH: 20 μL per well. The cells are incubated at room temperature for 10 minutes, then luminescence is read on Safire reader. The measured luminescence correlates directly with cell number, such that the reading as a function of compound concentration is used to determine the IC50 value.
It is understood that the results of these assays may vary as assay conditions are varied. Inhibition levels determined under the conditions described herein represent a relative activity for the compounds tested under the specific conditions employed. The cell based assays are likely to show variability due to the complexity of the system and the sensitivity thereof to any changes in the assay conditions. […] Results for compounds that are tested and show substantially no inhibition below the highest tested concentration are represented as “-” in the tables below. In some instances, the compounds were not tested in all of the assays, or assay results were not valid, as indicated by NA in the tables below.

In the case of `CCc1ccc(Nc2ccc(C(=O)c3c[nH]c4ncnc(NC5CCCC5)c34)c(F)n2)cn1` [Compound P-4099, [4-(cyclopentylamino)-7H-pyrrolo[2,3-d]pyrimidin-5-yl]-[6-[(6-ethyl-3-pyridyl)amino]-2-fluoro-3-pyridyl]methanone], the IC50 was less than 5 µM in experiment [1] and less than 1 µM in experiment [2].

For the compound `CCCCNc1ncnc2[nH]cc(C(=O)c3ccc(Nc4ccc(CC)nc4)nc3F)c12` [Compound P-4100, [4-(butylamino)-7H-pyrrolo[2,3-d]pyrimidin-5-yl]-[6-[(6-ethyl-3-pyridyl)amino]-2-fluoro-3-pyridyl]methanone], the IC50 in experiment [1] is less than 5 µM; in experiment [2] it was less than 1 µM.

For the compound `CC(C)Nc1ncnc2[nH]cc(C(=O)c3ccc(NC4CCCCC4)nc3F)c12` [Compound P-4101, [6-(cyclohexylamino)-2-fluoro-3-pyridyl]-[4-(isopropylamino)-7H-pyrrolo[2,3-d]pyrimidin-5-yl]methanone], the IC50 in experiment [1] is more than 10 µM; in experiment [2], less than 1 µM.

`CNc1ncnc2[nH]cc(C(=O)c3ccc(NC4CCCCC4)nc3F)c12` [Compound P-4102, [6-(cyclohexylamino)-2-fluoro-3-pyridyl]-[4-(methylamino)-7H-pyrrolo[2,3-d]pyrimidin-5-yl]methanone]: the IC50 in experiment [1] is less than 5 µM; in experiment [2] it was less than 1 µM.

On to `COc1cncc(Nc2ccc(C(=O)c3c[nH]c4ncnc(NCC(F)(F)F)c34)c(F)n2)c1` [Compound P-4103, [2-fluoro-6-[(5-methoxy-3-pyridyl)amino]-3-pyridyl]-[4-(2,2,2-trifluoroethylamino)-7H-pyrrolo[2,3-d]pyrimidin-5-yl]methanone], for which the IC50 in experiment [1] is less than 5 µM; in experiment [2], more than 1 µM.

Turning to `COc1cncc(Nc2ccc(C(=O)c3c[nH]c4ncnc(NC5CCCCC5)c34)c(F)n2)c1` [Compound P-4104, [4-(cyclohexylamino)-7H-pyrrolo[2,3-d]pyrimidin-5-yl]-[2-fluoro-6-[(5-methoxy-3-pyridyl)amino]-3-pyridyl]methanone], the IC50 in experiment [1] is more than 10 µM; in experiment [2] it was less than 1 µM.

Regarding `CCCNc1ncnc2[nH]cc(C(=O)c3ccc(Nc4cncc(OC)c4)nc3F)c12` [Compound P-4105, [2-fluoro-6-[(5-methoxy-3-pyridyl)amino]-3-pyridyl]-[4-(propylamino)-7H-pyrrolo[2,3-d]pyrimidin-5-yl]methanone], the IC50 in experiment [1] is more than 10 µM; in experiment [2], less than 10 µM.

For `COc1cncc(Nc2ccc(C(=O)c3c[nH]c4ncnc(NC(C)C)c34)c(F)n2)c1` [Compound P-4106, [2-fluoro-6-[(5-methoxy-3-pyridyl)amino]-3-pyridyl]-[4-(isopropylamino)-7H-pyrrolo[2,3-d]pyrimidin-5-yl]methanone], the IC50 in experiment [1] is less than 5 µM; in experiment [2], less than 1 µM.

Regarding `COc1cncc(Nc2ccc(C(=O)c3c[nH]c4ncnc(NC5CC5)c34)c(F)n2)c1` [Compound P-4107, [4-(cyclopropylamino)-7H-pyrrolo[2,3-d]pyrimidin-5-yl]-[2-fluoro-6-[(5-methoxy-3-pyridyl)amino]-3-pyridyl]methanone], the IC50 in experiment [1] is less than 5 µM; in experiment [2], less than 1 µM.

For `CNc1ncnc2[nH]cc(C(=O)c3ccc(Nc4cncc(OC)c4)nc3F)c12` [Compound P-4108, [2-fluoro-6-[(5-methoxy-3-pyridyl)amino]-3-pyridyl]-[4-(methylamino)-7H-pyrrolo[2,3-d]pyrimidin-5-yl]methanone], the IC50 was less than 5 µM in experiment [1] and more than 1 µM in experiment [2].

Take `CC(C)Nc1ncnc2[nH]cc(C(=O)c3ccc(NC4CCCCC4)nc3Cl)c12` [Compound P-4109, [2-chloro-6-(cyclohexylamino)-3-pyridyl]-[4-(isopropylamino)-7H-pyrrolo[2,3-d]pyrimidin-5-yl]methanone]: the IC50 was more than 10 µM in experiment [1] and less than 10 µM in experiment [2].

Consider `CNc1ncnc2[nH]cc(C(=O)c3ccc(NC4CCCCC4)nc3Cl)c12` [Compound P-4110, [2-chloro-6-(cyclohexylamino)-3-pyridyl]-[4-(methylamino)-7H-pyrrolo[2,3-d]pyrimidin-5-yl]methanone], for which the results for the IC50 in experiment [1] and in experiment [2] were less than 5 µM and less than 10 µM, respectively.

Take `Cc1ccc(Nc2ccc(C(=O)c3c[nH]c4ncnc(NCC(F)(F)F)c34)c(F)n2)cn1` [Compound P-4112, [2-fluoro-6-[(6-methyl-3-pyridyl)amino]-3-pyridyl]-[4-(2,2,2-trifluoroethylamino)-7H-pyrrolo[2,3-d]pyrimidin-5-yl]methanone]: the IC50 is less than 5 µM in experiment [1] and less than 10 µM in experiment [2].

With `CCc1ccc(Nc2ccc(C(=O)c3c[nH]c4ncnc(NCC(F)(F)F)c34)c(F)n2)cn1` [Compound P-4120, [6-[(6-ethyl-3-pyridyl)amino]-2-fluoro-3-pyridyl]-[4-(2,2,2-trifluoroethylamino)-7H-pyrrolo[2,3-d]pyrimidin-5-yl]methanone], the values for the IC50 in experiment [1] and in experiment [2] were less than 5 µM and less than 1 µM, respectively.

On to `CCNc1ncnc2[nH]cc(C(=O)c3ccc(Nc4ccc(CC)nc4)nc3F)c12` [Compound P-4123, [4-(ethylamino)-7H-pyrrolo[2,3-d]pyrimidin-5-yl]-[6-[(6-ethyl-3-pyridyl)amino]-2-fluoro-3-pyridyl]methanone], for which the IC50 is more than 10 µM in experiment [1] and less than 0.1 µM in experiment [2].

With `CCc1ccc(Nc2ccc(C(=O)c3c[nH]c4ncnc(NC)c34)c(F)n2)cn1` [Compound P-4124, [6-[(6-ethyl-3-pyridyl)amino]-2-fluoro-3-pyridyl]-[4-(methylamino)-7H-pyrrolo[2,3-d]pyrimidin-5-yl]methanone], the IC50 is less than 5 µM in experiment [1] and less than 1 µM in experiment [2].

In the case of `COc1ccc(Nc2ccc(C(=O)c3c[nH]c4ncnc(NC5CC5)c34)c(F)n2)cn1` [Compound P-4126, [4-(cyclopropylamino)-7H-pyrrolo[2,3-d]pyrimidin-5-yl]-[2-fluoro-6-[(6-methoxy-3-pyridyl)amino]-3-pyridyl]methanone], the IC50 in experiment [1] was less than 5 µM; in experiment [2], less than 0.1 µM.

Regarding `Fc1cc(Cc2c[nH]c3ncnc(NC4CC4)c23)cnc1NC1CCC(F)(F)CC1` [Compound P-4127, N-cyclopropyl-5-[[6-[(4,4-difluorocyclohexyl)amino]-5-fluoro-3-pyridyl]methyl]-7H-pyrrolo[2,3-d]pyrimidin-4-amine], the results for the IC50 in experiment [1] and in experiment [2] were more than 10 µM and less than 10 µM, respectively.
